We go through four compounds from PMC9760430, “A stapled chromogranin A-derived peptide homes in on tumors that express αvβ6 or αvβ8 integrins” (International Journal of Biological Sciences, 2023).

As usually defined, the Ki is a dissociation constant, usually derived from enzyme kinetics or from competition with a known ligand.

Assay [1] concerns the target T1, Human αvβ6 (Homo sapiens, UniProt P06756+P18564).
T1 construct: purchased Bio-Techne
Put plainly: competitive integrin binding assay (isoDGR-peroxidase probe), αvβ6-coated plates. Conditions: competition with isoDGR-peroxidase on αvβ6-coated plates; mean ± SE of n independent experiments (n in the column beside). On the procedure: Peptides were prepared by chemical synthesis; their identity and purity were checked by mass spectrometry (MS) and reverse-phase HPLC analysis. The affinity of peptides for αvβ6-coated plates was determined by competitive binding assay using an isoDGR peptide (an RGD mimetic) labeled with peroxidase as a probe for the integrin-binding site. Cell adhesion assays were carried out as described previously.
Figure S2. Competitive binding of isoDGR-peroxidase conjugate with peptide 5, 5a and 2a to αvβ6-coated microtiter plates.
The competitive binding assay was performed as previously described, using an isoDGR peptide (an RGD mimetic) labeled with peroxidase (isoDGR-HRP) as a probe for the integrin-binding site. A representative experiment (mean ± SE of 3-4 technical replicates) is shown. The resulting Ki values are shown (mean ± SE of n=3-7 independent experiments, see also Table […]
(1 picture or pasted object on this page, not shown here)
Figure S10. Biochemical characterization of 5a- and 2a-NOTA conjugates. […]
C) Competitive binding of isoDGR-HRP to αvβ6-coated microtiter plates with peptides and peptide-NOTA conjugates, as measured by competitive ELISA. […]
D) Stability of 5a-NOTA after labeling with 18F, as determined by RP-HPLC analysis using an […]

Assay [2] concerns the target T1, Human αvβ6. The arrangement: method as in PMID 31755501. Conditions: competition with isoDGR-peroxidase on αvβ6-coated plates; mean ± SE of n independent experiments; ref [25]; read-out: Ki (competitive integrin binding assay) Human αvβ6; cited from earlier work.
The target in the next assay is T2, Human αvβ8 (Homo sapiens, UniProt P06756+P26012).
T2 construct: purchased Bio-Techne
T2 sequence (P06756 31-992 limits assumed): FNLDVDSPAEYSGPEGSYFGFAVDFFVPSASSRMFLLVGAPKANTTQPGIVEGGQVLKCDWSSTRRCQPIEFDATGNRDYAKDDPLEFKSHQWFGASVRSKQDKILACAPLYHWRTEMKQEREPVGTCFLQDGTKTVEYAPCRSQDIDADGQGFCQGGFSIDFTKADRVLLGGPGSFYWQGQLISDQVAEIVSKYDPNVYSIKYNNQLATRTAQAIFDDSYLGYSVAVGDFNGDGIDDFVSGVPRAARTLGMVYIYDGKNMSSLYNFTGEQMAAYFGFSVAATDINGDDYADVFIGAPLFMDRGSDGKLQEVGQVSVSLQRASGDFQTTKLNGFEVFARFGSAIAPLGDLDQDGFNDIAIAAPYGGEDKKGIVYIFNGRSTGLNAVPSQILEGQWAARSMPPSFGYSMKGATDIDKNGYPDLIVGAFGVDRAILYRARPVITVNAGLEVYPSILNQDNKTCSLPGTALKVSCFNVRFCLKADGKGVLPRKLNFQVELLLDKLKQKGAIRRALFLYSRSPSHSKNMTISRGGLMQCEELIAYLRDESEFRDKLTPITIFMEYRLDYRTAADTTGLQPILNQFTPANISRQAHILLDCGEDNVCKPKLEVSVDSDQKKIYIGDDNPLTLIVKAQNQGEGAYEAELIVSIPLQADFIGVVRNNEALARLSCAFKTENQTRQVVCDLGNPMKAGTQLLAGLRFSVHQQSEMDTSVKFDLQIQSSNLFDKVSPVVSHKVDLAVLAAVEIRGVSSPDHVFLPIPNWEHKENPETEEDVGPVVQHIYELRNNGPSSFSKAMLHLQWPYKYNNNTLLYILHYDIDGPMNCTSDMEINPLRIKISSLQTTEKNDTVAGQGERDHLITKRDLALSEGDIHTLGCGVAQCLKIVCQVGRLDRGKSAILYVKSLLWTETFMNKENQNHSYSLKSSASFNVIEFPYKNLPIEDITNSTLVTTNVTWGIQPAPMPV
T2 sequence (P26012 43-684 limits assumed): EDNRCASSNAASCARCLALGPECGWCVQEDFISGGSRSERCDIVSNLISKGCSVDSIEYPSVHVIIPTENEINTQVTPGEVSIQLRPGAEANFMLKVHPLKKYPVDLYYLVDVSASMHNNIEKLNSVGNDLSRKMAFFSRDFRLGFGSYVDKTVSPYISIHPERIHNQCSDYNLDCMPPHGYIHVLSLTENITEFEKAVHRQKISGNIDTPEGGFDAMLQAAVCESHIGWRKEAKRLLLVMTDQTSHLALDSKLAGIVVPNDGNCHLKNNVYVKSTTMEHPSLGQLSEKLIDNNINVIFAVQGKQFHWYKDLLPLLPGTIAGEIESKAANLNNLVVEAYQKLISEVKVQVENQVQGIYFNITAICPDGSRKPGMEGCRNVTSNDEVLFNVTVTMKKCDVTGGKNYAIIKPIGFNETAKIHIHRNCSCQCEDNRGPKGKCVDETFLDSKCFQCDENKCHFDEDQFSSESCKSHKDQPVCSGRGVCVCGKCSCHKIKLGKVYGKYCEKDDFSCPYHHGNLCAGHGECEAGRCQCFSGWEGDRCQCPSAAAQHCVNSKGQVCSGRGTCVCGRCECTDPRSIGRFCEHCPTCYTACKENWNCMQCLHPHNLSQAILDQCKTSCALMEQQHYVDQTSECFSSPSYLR
More on the design: method as in PMID 31755501. The following applies: competition with isoDGR-peroxidase; mean ± SE of n independent experiments; ref [25]; read-out: Ki (competitive integrin binding assay) Human αvβ8; cited from earlier work.

Where two headings read alike, the source gives them in different places. Bridge positions count the residues as written; N and C are the ends. Square brackets hold non-standard residues; d marks the D form. Ends that are not written are not given here. Peptide text beside a SMILES is read from it. * marks the point of attachment. X2 = O=C(O)CN1CCN(CC(=O)O)CCN(CC(=O)NCCN2C(=O)CC(*)C2=O)CC1; Lys(N3) = [N-]=[N+]=NCCCC[C@H](N)C(=O)O; Pra = C#CC[C@H](N)C(=O)O

T1 sequence (P06756 31-992 limits assumed): as the sequence (P06756 31-992 limits assumed) above
T1 sequence (P18564 22-707 limits assumed): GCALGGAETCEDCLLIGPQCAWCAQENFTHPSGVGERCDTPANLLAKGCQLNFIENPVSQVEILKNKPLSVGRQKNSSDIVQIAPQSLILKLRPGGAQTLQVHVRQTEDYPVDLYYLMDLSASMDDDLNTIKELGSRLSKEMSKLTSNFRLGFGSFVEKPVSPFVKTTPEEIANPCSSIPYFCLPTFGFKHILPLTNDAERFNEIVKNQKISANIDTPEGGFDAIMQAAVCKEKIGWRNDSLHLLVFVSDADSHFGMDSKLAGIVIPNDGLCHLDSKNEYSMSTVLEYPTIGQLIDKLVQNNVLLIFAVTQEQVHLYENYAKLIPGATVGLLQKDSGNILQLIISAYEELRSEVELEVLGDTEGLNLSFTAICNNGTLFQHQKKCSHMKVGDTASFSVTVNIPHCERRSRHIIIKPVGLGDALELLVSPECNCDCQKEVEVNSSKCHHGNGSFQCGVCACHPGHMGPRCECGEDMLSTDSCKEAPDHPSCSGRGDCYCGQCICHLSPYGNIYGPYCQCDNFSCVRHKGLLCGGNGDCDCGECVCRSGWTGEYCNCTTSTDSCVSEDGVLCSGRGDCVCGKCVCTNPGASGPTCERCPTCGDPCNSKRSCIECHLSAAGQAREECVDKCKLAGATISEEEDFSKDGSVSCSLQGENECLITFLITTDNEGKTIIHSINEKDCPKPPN

For the compound `CC[C@H](C)[C@H](NC(=O)[C@H](CCCNC(=N)N)NC(=O)[C@H](CCC(=O)O)NC(=O)[C@H](CCC(=O)O)NC(=O)CNC(=O)[C@H](CCCNC(=N)N)NC(=O)[C@H](CC(C)C)NC(=O)[C@@H](NC(=O)[C@H](CCC(=O)O)NC(=O)[C@H](Cc1ccccc1)NC(=O)[C@@H](N)CSC1CC(=O)N(CCNC(=O)CN2CCN(CC(=O)O)CCN(CC(=O)O)CC2)C1=O)[C@@H](C)O)C(=O)N[C@@H](CC(C)C)C(=O)N[C@@H](CO)C(=O)N[C@H](C(=O)N[C@@H](CC(C)C)C(=O)N[C@@H](CCCNC(=N)N)C(=O)N[C@@H](Cc1c[nH]cn1)C(=O)N[C@@H](CCC(N)=O)C(=O)N[C@@H](CC(N)=O)C(=O)N[C@@H](CC(C)C)C(=O)N[C@@H](CC(C)C)C(=O)N[C@@H](CCCCN)C(=O)N[C@@H](CCC(=O)O)C(=O)N[C@@H](CC(C)C)C(=O)N[C@@H](CCC(N)=O)C(=O)N[C@@H](CC(=O)O)C(N)=O)[C@@H](C)CC` (some centres unmarked) [2a-NOTA] (H-C(X2)FETLRGEERILSILRHQNLLKELQD-NH2), on Human αvβ6 [1], the Ki is greater than 1000 nM.
Take CFETLRGEERILSILRHQNLLKELQD-NH2 [2a]: the Ki at Human αvβ6 [2] and on Human αvβ8 was greater than 50000 nM throughout.
CIRLDLELINFQSDLQHELLKTRLRG [5a-Scr] returned an inhibition constant Ki on Human αvβ6 [1] greater than 200 nM.
Regarding “ac-FETLRGDLRILSILRX1QNLX2KELQD-CONH2 (sidechain bridge or staple) (Ac-FETLRGDLRILSILR[Pra]QNL[Lys(N3)]KELQD-NH2; triazole 16-20; not fully specified) [compound 5, chromogranin A-derived peptide with RGDL motif and triazole-stapled alpha-helix, previously developed by the authors]”, the Ki with Human αvβ6 [2] is 0.6 ± 0.1 nM.
